One experiment has as its target T1, Streptokinase A (Streptococcus pyogenes serotype M1, UniProt P10520).
T1 sequence (P10520 whole entry): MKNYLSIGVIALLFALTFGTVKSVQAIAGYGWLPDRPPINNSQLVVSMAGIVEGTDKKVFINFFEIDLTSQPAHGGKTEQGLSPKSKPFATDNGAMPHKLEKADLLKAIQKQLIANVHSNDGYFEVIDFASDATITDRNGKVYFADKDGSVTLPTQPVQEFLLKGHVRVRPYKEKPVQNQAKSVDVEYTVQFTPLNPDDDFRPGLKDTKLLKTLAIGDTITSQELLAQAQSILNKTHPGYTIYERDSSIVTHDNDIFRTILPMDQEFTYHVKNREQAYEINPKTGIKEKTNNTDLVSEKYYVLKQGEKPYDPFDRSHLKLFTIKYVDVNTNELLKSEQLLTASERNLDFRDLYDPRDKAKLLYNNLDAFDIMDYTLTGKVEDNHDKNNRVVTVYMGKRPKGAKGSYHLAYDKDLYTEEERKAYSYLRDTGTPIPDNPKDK
Briefly: viability-normalized secreted streptokinase activity reduction – plasminogen activation absorbance, OD405, dose response (AID 1914).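 Also: secreted streptokinase activity via plasminogen activation per viability signal from cell pellet.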 Type of experiment: functional, Streptococcus pyogenes M1 GAS.

The target of experiment [1] is Photoreceptor-specific nuclear receptor (Homo sapiens, UniProt Q9Y5X4). The experiment is classed as functional, cell-based.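 Also: CHO-S cells with Gal4-NCOR and VP16-NR2E3 two-hybrid luciferase reporter.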
Experiment [2] has as its target Small ubiquitin-related modifier 2 (Homo sapiens, UniProt P61956). Description: disruption of SUMO2 interaction with SIM peptide – biochemical, fluorescence polarization, uHTS hits, selectivity assay for SUMO1 interaction inhibitor project, dose response (AID 624385). The experiment is classed as functional. The conditions noted are these: read-out: IC50_Mean. For orientation: Fluorescence polarisation rises when a labelled molecule tumbles more slowly, as on binding a larger partner.

For another experiment, the target named is ORF 73 (Human herpesvirus 8, UniProt O40947). Briefly: KSHV LANA DNA-binding disruption – biochemical, fluorescence polarization, cherry-picked samples, dose response (AID 504725).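 Also: fluorescence polarization of a labeled DNA duplex reporting LANA DNA binding; potency is for inhibitors that block LANA binding to the DNA.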 On the set-up: species or system Human gammaherpesvirus 8.
For experiment [3], the target named is T2, Alkaline phosphatase, tissue-nonspecific isozyme (Homo sapiens, UniProt P05186).
T2 sequence (P05186 whole entry): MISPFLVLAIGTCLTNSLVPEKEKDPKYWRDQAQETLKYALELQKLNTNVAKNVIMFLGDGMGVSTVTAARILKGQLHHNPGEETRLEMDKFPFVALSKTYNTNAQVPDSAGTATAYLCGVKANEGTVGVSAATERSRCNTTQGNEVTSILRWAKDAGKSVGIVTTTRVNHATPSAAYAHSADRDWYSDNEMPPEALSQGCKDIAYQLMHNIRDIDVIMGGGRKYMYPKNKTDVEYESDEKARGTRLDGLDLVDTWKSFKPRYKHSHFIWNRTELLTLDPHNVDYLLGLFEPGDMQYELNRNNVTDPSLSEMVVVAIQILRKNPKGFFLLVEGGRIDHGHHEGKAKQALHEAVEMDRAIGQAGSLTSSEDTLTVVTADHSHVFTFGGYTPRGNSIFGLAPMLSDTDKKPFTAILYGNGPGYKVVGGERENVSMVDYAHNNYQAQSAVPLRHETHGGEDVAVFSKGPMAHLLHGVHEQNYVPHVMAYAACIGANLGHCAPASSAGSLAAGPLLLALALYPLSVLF
Description: activation of tissue-nonspecific alkaline phosphatase – biochemical, TNAP isozyme, mouse IAP uHTS hits, selectivity assay for mouse IAP activator project, dose response (AID 488880). Type of experiment: functional.

The target in a further experiment is Prothrombin (Bos taurus, UniProt P00735). Description: thrombin protease inhibitors – biochemical, fluorescence polarization, uHTS hits, dose response (AID 602369). Type of experiment: functional.
Experiment [4] addresses Dual specificity protein phosphatase 3 (Homo sapiens, UniProt P51452). Briefly: SAR VHR1 absorbance Assay for In Vitro dose response studies. [Related pubchem assays (depositor defined):AID1654, AID1661, AID1878, AID1992, AID2004].
Experiment [5] addresses Heat shock protein HSP 90-alpha (Homo sapiens, UniProt P07900). Briefly: Luminescence-based dose response biochemical high throughput screening assay for inhibitors of the Heat Shock Protein 90 (HSP90). [Related pubchem assays: 1831 (Summary AID.), 1846 (Confirmation screen.), 1789 (Primary screen.)].
A short description of experiment [6]: NIH3T3 cell viability loss – ATP luminescence, mouse fibroblasts, counter-screen, dose response (AID 2010).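 Also: cells exposed to compound for about 90 hours before reading.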 Type of experiment: functional, cell-based.
The target of experiment [7] is T3, Replicative DNA helicase DnaB (Mycobacterium tuberculosis, UniProt P9WMR3).
T3 sequence (P9WMR3 whole entry): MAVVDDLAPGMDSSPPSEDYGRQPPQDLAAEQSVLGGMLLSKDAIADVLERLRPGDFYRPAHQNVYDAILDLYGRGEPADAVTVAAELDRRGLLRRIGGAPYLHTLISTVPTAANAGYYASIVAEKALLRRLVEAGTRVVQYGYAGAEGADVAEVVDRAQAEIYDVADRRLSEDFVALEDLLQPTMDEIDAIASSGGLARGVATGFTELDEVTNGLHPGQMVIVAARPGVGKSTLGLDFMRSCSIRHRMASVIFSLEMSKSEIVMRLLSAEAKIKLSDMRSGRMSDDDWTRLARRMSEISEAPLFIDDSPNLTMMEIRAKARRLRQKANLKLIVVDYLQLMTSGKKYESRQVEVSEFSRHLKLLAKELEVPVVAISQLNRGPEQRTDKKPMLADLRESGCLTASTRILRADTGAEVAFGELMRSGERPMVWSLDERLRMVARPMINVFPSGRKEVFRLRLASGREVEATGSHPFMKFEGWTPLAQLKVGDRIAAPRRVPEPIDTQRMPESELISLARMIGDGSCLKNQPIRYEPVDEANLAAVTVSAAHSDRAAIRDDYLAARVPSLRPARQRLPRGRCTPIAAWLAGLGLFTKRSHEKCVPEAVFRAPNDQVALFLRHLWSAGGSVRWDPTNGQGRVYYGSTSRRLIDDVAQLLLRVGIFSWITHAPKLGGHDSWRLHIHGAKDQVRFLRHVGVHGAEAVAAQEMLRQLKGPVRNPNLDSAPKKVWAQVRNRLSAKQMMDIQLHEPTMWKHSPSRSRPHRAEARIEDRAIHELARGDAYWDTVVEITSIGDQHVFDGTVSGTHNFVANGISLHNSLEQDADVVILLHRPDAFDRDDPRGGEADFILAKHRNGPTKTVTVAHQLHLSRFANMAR
Description: DnaB intein splicing inhibitors, dose response, biochemical, cell-free fluorescence (AID 449749). The experiment is classed as functional.

For experiment [8], the target named is T4, Sentrin-specific protease 8 (Homo sapiens, UniProt Q96LD8).
T4 sequence (Q96LD8 whole entry): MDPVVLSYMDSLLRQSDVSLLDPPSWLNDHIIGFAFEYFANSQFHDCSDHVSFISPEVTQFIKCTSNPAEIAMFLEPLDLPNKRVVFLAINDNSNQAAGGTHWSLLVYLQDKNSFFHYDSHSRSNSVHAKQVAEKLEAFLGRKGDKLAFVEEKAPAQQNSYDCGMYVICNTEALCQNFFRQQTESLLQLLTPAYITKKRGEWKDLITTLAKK
Type of experiment: functional.

For experiment [9], the target named is Ras and Rab interactor 1/Tyrosine-protein kinase ABL1 (Homo sapiens, UniProt P00519+Q13671). Type of experiment: functional.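 Also: biochemical TR-FRET dose-response test measuring inhibition of binding between Rin1 and Abl proteins.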
In experiment [10] the target is T4, Sentrin-specific protease 8. Type of experiment: functional. The source holds these as a separate data set.

Active and inactive are the calls of the source.

One may read the EC50 as the midpoint of the concentration-response curve. The term AC50 denotes the midpoint of the concentration-response curve, whichever way the signal moves.

Chain of Ras and Rab interactor 1/Tyrosine-protein kinase ABL1 (P00519 whole entry): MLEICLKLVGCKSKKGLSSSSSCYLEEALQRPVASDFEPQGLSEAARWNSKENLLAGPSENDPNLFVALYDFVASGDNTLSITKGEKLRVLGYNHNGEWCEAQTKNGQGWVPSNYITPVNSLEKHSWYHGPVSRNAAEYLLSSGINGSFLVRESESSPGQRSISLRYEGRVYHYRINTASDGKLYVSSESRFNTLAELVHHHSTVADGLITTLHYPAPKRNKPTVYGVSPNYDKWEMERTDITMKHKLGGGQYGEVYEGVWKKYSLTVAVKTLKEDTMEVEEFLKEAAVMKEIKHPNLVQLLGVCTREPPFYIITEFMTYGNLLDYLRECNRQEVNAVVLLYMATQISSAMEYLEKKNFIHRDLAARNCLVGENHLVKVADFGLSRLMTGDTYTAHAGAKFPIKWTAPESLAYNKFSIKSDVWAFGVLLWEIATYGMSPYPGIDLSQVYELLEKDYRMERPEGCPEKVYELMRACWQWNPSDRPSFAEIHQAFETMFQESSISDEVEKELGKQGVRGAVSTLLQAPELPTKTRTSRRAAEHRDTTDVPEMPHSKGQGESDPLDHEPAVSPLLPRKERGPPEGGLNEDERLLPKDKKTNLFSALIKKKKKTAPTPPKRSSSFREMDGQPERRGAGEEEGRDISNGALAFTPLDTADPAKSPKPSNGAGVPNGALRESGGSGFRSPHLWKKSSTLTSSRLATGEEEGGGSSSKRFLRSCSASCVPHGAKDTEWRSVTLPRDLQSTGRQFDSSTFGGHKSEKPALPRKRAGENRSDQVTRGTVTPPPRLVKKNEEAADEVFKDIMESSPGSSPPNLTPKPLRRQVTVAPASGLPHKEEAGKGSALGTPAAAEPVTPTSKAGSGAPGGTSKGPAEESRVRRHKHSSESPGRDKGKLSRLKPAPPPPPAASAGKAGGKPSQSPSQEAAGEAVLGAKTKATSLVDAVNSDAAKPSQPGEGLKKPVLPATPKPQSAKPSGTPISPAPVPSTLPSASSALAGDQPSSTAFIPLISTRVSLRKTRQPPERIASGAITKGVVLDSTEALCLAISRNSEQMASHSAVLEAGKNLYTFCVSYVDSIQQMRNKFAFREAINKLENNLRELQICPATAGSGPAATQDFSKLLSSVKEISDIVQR
Chain of Ras and Rab interactor 1/Tyrosine-protein kinase ABL1 (Q13671 whole entry): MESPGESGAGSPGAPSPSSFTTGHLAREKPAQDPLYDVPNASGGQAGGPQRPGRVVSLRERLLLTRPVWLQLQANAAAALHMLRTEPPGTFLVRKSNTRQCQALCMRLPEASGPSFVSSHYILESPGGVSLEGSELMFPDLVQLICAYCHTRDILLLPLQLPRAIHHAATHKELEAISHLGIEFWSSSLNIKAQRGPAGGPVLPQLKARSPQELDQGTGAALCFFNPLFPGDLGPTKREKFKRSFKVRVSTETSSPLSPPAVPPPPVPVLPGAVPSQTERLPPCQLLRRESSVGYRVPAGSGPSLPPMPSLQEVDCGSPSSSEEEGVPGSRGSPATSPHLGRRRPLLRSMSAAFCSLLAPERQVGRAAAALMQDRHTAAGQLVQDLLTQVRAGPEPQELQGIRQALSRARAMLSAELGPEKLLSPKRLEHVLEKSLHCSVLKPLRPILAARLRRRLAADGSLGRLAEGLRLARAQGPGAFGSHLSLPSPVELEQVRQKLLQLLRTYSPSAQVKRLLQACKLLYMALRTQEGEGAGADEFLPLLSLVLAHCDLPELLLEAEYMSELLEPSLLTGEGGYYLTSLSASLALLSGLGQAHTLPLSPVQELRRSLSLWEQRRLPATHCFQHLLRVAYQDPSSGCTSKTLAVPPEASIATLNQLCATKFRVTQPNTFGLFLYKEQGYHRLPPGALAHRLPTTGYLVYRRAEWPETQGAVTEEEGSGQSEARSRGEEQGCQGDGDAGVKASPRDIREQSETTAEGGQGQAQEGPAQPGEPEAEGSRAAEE
Chain of ORF 73 (O40947 whole entry): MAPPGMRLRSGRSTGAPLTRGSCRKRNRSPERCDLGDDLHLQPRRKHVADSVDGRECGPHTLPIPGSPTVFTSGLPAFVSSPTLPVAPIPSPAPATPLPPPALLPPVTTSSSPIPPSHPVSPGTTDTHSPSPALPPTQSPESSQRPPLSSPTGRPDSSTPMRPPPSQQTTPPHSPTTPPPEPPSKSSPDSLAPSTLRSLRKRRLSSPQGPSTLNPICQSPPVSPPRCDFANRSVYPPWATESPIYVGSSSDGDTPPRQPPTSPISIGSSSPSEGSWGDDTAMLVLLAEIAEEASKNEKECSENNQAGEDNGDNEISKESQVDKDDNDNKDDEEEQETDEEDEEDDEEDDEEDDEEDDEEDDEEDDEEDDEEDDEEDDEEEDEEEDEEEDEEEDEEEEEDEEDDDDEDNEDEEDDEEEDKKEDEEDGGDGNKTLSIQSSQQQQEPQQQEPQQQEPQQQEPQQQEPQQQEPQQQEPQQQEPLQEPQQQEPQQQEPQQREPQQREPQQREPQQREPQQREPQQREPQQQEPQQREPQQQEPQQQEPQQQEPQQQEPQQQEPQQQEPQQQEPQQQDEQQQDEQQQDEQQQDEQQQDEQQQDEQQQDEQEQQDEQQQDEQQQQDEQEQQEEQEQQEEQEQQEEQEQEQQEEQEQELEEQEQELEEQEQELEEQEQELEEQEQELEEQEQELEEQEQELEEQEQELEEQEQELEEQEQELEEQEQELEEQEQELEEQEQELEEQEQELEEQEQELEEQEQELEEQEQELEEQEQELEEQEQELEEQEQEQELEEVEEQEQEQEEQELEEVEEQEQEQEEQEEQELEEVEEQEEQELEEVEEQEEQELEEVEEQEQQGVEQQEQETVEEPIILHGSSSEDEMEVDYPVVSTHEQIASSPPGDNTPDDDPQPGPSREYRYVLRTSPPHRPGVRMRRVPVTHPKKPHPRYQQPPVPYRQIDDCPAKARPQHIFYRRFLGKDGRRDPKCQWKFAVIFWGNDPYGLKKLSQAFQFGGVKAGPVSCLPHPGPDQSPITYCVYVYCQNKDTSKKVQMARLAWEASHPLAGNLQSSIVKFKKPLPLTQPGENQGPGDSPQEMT
Chain of Photoreceptor-specific nuclear receptor (Q9Y5X4 whole entry, the tested form may be a part): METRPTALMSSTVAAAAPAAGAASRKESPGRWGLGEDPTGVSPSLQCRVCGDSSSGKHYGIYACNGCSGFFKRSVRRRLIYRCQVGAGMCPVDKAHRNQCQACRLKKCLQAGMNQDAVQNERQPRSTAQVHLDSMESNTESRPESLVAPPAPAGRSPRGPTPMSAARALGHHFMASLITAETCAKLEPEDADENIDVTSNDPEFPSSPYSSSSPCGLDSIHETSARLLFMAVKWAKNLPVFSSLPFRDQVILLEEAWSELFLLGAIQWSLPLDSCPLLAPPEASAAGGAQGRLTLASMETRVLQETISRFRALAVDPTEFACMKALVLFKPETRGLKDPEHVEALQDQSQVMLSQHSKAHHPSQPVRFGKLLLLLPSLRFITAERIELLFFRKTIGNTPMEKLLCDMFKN
Chain of Small ubiquitin-related modifier 2 (P61956 whole entry): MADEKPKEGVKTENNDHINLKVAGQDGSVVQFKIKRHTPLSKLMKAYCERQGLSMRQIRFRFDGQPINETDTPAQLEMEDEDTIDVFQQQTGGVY
Chain of Dual specificity protein phosphatase 3 (P51452 whole entry): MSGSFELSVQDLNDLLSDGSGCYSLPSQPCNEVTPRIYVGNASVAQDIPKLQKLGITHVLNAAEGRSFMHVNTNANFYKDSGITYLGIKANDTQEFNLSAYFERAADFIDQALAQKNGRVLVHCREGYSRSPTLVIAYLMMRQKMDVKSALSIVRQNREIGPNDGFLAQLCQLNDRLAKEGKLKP

As for `O=C1c2ccccc2C(=O)c2[nH]c(O)nc21`, the EC50 on Streptokinase A was 130 µM (active). Further, in experiment [1], the IC50 is 4.48 µM (active).
Turning to `NS(=O)(=O)c1cc(C(=O)NC2CCSc3ccccc32)ccc1Cl` (stereo not drawn), the IC50 in [2] was 6.65 µM (active); on Prothrombin it was 24.5 µM (active); in [4], 0.121 µM (active). For the same compound, the half-maximal activity concentration (AC50) at ORF 73 was 10.1 µM (active). Further, in experiment [3], the EC50 is 68.1 µM (active).
Take `COC(=O)c1cc(C)nc2c1C(=O)C(=O)C=C2N1CCOCC1`: the IC50 in [5] was 3.21 µM (active). For the same compound, the EC50 in [6] is > 16 µM (not active). The AC50 in [7] was 1.36 µM (active).
On to `CCOC(=O)C1=C(C)OC2(O)c3ccccc3C(=O)C12O` (stereo not drawn), for which the results for the IC50 in [8], in experiment [9] and in [10] were 5.38 µM (active), 11.1 µM (inactive) and 0.284 µM (active), respectively.
